From patent US20230323292A1, “METHODS FOR PRODUCING A (THREE DIMENSIONAL) NEURAL TISSUE” (TECHNISCHE UNIVERSITEIT EINDHOVEN, priority 2020, published 2023)
Structures can show the parent of a compound that is named as a salt.

Test system: MARC-produced cerebral tissues
Experiment: Live calcium imaging of interconnected MARC-produced cerebral tissues in the iS3CC chip after Penicillin G treatment of one chamber
Type: cell-based, human
Procedure: The transparent PDMS devices were repeatedly washed using 70% ethanol followed by sterilization using UV light in the safety cabinets (3×5 min). After neuronal induction phase, the cells were disassociated using Accutase and resuspended in 35 μl of a mixture of cold GFR-Matrigel and differentiation medium with a 70:30 v/v ratio at a final concentration of 50,000 cells per chamber. The chips containing cells and Matrigel-medium mixture were placed in a Petri dish to prevent contamination, since the chips have an open top, and kept in an incubator at 37° C. and 5% CO2 for 5 min to polymerize the Matrigel mixture. After that, an additional 200 μl of differentiation medium was added to each chamber and the chips were placed back into the incubator. The medium was refreshed and the culture was continued as described above, with gentler handing to prevent damage to the gel and cells.
Live calcium imaging was performed with the same widefield epifluorescence microscope, equipped with temperature, CO2, and humidity control. The tissues were incubated in the recommended concentrations of Fluo-4 direct according to the manufacturer (Molecular Probes, F10471) for 50 min in the incubator at 37° C. and 10 min at room temperature. After that, the tissues were washed five times with the neural maintenance medium. The calcium surges were recorded using an excitation of 488 nm and an emission of 530 nm every 10 seconds. Fluorescence images were obtained using a widefield epifluorescence microscope (Leica DMi8) equipped with either a 5×/0.15 HC PL Fluotar or a 10×/0.32 HC PL Fluotar objective lens. […]
Neuronal activity was analyzed from the time-lapse images. To account for possible drifts or deformations of the tissues, the location of the cells was detected in each frame and linked across the frames using the Mosaic particle tracker plugin in ImageJ. The fluorescence intensity of each detected cell was calculated from the image intensity data using MATLAB. Occasional gaps in the time traces, due to the cells not being detected in certain frames, were filled using spline interpolation of the intensity values. The background fluorescence in each chamber was calculated in the same way using 10 arbitrarily selected cell-sized ROIs in the cell-free regions of each chamber, averaged, and subtracted from the real (cell) data. Further, the intensity values were corrected for imaging artifacts due to out-of-focus fluorescence by subtracting the mean intensity of an annular mask with an outer radius of 18 pixels and an inner radius of 9 pixels (i.e., size of the ROI) for each ROI. […]

SMILES: CC1(C)S[C@@H]2[C@H](NC(=O)Cc3ccccc3)C(=O)N2[C@H]1C(=O)O [Penicillin G, Penicillin G sodium salt]
- propagation of synchronized transient peaks from treated tissue to cells in the untreated tissue (share of the time) (4 cells per tissue, post-treatment with Penicillin G (FIG. 4e,f)): ~45%
- fluorescence in the treated tissue compared to the baseline (treated chamber, immediately following treatment, Penicillin G sodium salt 100 mg/ml bath application, Fluo-4 calcium imaging): increased amount of fluorescence
- neuronal activity and synchrony of transient spikes in the treated tissue (treated chamber, post-treatment, Penicillin G 100 mg/ml, indicative for abnormal excessive discharges): increased magnitude and frequency of neuronal activity, as well as synchrony of transient spikes
- intensity and neuronal activity of neurons in the untreated chamber (untreated chamber connected across 8 μm porous membrane, post-treatment of the other chamber): increased intensity and neuronal activity
